The results in this text go back to EP3363436A1, “AGENT FOR TREATING PARASITIC WORM DISEASES” (Haas, Helmut, priority 2017, dated 2018).

The test system of the experiment is S. mansoni. In words: Drug testing on schistosomes in vitro (incubation of cultured worms with the substance, morphological assessment). It is filed as cell-based. The text has this:
Mirazidien für die Infektion von Wasserschnecken (Biomphalaria glabrata, Stamm Puerto Rico) wurden mittels Standardverfahren aus Gewebe (Leber, Darm) von Syrischen Goldhamstern bzw. Mäusen gewonnen, die mit S. mansoni (Liberian strain bzw. Brasilian strain) infiziert worden waren. Hierzu wurde das Gewebe (freundlicherweise zur Verfügung gestellt von Prof. Dr. Grevelding, Universität Gießen bzw. von Dr. Sombetzki, Universität Rostock) mechanisch zerkleinert und die darin enthaltenen Wurmeier mittels Enzymverdau aus dem Gewebeverband herausgelöst. Nach Zugabe von H2O zu dem Gewebspräzipitat schlüpfen aus den Eiern die Mirazidien. Die Infektion erfolgte separat für jede Schnecke mit 4-7 Mirazidien. Da Licht für die Zerkarien der Schlüsselreiz zum Verlassen der Schnecke ist, wurden die Schnecken in der vierten Woche nach Infektion dunkel gestellt, um ein vorzeitiges Ausschwärmen von Zerkarien zu unterbinden.
6-7 Wochen nach Infektion wurden die infizierten Schnecken aus Beispiel 1 in Wasser mittels einer 60-Watt Glühlampe von oben belichtet, da ab diesem Zeitpunkt Zerkarien die infizierten Schnecken in ausreichender Menge verlassen. Während einer Belichtungsdauer von 2-3 Stunden wurden die aufschwimmenden Zerkarien gesammelt. Nach wiederholtem Waschen und Überführen in Medium erfolgte die Transformation der Zerkarien mechanisch nach Standardverfahren. Dazu erfolgten wiederholte Passagen durch eine Emulsionsnadel, an die zwei Spritzen angeschlossen sind. Die durch die Transformation aus den Zerkarien (Gabelschwanzlarven) entstandenen Schistosomula wurden ebenfalls wiederholt in Medium gewaschen und dabei von den abgescherten Schwänzen getrennt.
Die transformierten Schistosomula wurden nach dem von Basch beschriebenen Verfahren kultiviert (Basch (1981), J Parasitol.; 67: 179-185), wobei das Verfahren leicht modifiziert wurde, wie es bei Reimers beschrieben wurde (Reimers et al. (2015), PLoS Negl Trop Dis 9(3): e0003593). […]

Consider `CCOC(=O)C1=C(C)NC(C)=C(C(=O)OC)C1c1cccc(Cl)c1Cl` (racemic) [Felodipin], for which the “Abtöten von Schistosomen” value (in vitro, Schistosomula, juvenile and adult worms, initially 10 µM (Figures 1-2: 10, 20, 40 µM), 24 h exposure then wash-out, assessed at 4 h, 24 h, 48 h, 72 h and 7 days) is on record as “hochwirksam Schistosomen abtöten”. Besides, where the note is “incubation of parasitic worms with Felodipin in vitro”, the “morphologische Veränderungen und Schädigung der Würmer” value is reported as “erheblichen morphologischen Veränderungen und irreversiblen Schädigung der Würmer”.

As for `CN(C)C(=O)C(CCN1CCC(O)(c2ccc(Cl)cc2)CC1)(c1ccccc1)c1ccccc1` [Loperamid, 4-[4-(4-Chlorphenyl)-4-hydroxypiperidin-1-yl]-N,N-dimethyl-2,2-diphenylbutyramid], under “Loperamid given together with Felodipin, in vitro”, the “Verstärkung der Wirkung von Felodipin” value is given as “verstärkt Loperamid die Wirkung von Felodipin signifikant”.
